Laboratory results reported in ChEMBL document CHEMBL1137081, “Conformationally constrained analogues of diacylglycerol. 20. The search for an elusive binding site on protein kinase C through relocation of the carbonyl pharmacophore along the sn-1 side chain of 1,2-diacylglycerol lactones” (J Med Chem, 2004).

biological target: Protein kinase C alpha type (Homo sapiens, UniProt P17252); experiment: Displacement of [20-3H]-phorbol 12,13-dibutyrate (PDBU) from protein kinase C alpha with phosphatidylserine

Point of comparison: `CCCCCCCC(=O)OCCCC1(CO)CC(=CCC(C(C)C)C(C)C)C(=O)O1` (stereo unspecified), Ki 1430 nM. Against it:
- CCCCCCCC(=O)OCCCC1(CO)C/C(=C/CC(C(C)C)C(C)C)C(=O)O1 (stereo unspecified) — 1.9-fold lower, 736 nM
- CCCCCCCCCOC(=O)CC1(CO)C/C(=C/CC(C(C)C)C(C)C)C(=O)O1 (stereo unspecified) — 26-fold lower, 55.7 nM
- CCCCCCCCCOC(=O)CC1(CO)C/C(=C\CC(C(C)C)C(C)C)C(=O)O1 (stereo unspecified) — 23-fold lower, 62.2 nM
- CCCCCCCCC(=O)OCCC1(CO)C/C(=C/CC(C(C)C)C(C)C)C(=O)O1 (stereo unspecified) — 6.9-fold lower, 208 nM
- CCCCCCCCC(=O)OCCC1(CO)C/C(=C\CC(C(C)C)C(C)C)C(=O)O1 (stereo unspecified) — 3.1-fold lower, 459 nM
